Laboratory results reported in patent publication US20120022122A1, “TREATMENT AND PREVENTION OF DELETERIOUS EFFECTS ASSOCIATED WITH ALCOHOL CONSUMPTION” (priority 2008, published 2012).
Read-outs that look alike come from different tables or passages of the source.

Columns and labels:
[1] = tested on: alcohol-induced flush reaction; conditions: for effects/effectiveness compared to no treatment or comparator: cimetidine 300 mg vs famotidine 10 mg vs no treatment; for effectiveness as preventative treatment against symptoms of alcohol-induced flush reaction (summary of the studies): famotidine at low dose, cimetidine at a higher dose; for undesired side-effects (drowsiness, sedation): famotidine 10 mg oral chewable tablet, with alcohol;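 for all read-outs here: human subjects with alcohol-induced flushing observed over social drinking occasions, with each subject also tested untreated as the control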
[2] = cited from earlier work
[3] = tested on: alcohol flush reaction and hangover; conditions: previous studies with famotidine alone
[4] = Patient one, oral 45 min before drinking: cimetidine 300 mg (2 beverages, about 2 h) or famotidine 10 mg (2 oz tequila and 5 glasses beer, more than 6 h)
[5] = Patient three, oral 45 min before drinking: cimetidine 300 mg (2 beverages, about 3 h) or famotidine 10 mg (cocktails, about 4 h)
[6] = Subject 2, with alcohol, oral 45 min before drinking: cimetidine 300 mg or famotidine 10 mg
[7] = Subject 4, with alcohol, oral 45 min before drinking: cimetidine 300 mg or famotidine 10 mg
[8] = Subject 1, with alcohol, oral 45 min before drinking: loratidine 20 mg or famotidine 10 mg
[9] = Subject 3, with alcohol, oral 45 min before drinking: loratidine 20 mg or famotidine 10 mg
[10] = Subject 5, with alcohol, oral 45 min before drinking: loratidine 20 mg or famotidine 10 mg

CN/C(=N/CCSCc1nc[nH]c1C)NC#N [Cimetidine]
effects/effectiveness compared to no treatment or comparator ([1]; Patient one): slightly less aggressive
flushing reaction after drinking alcohol [1, 4]: still experienced a facial flushing reaction, increased heart rate, as well as a headache
effects/effectiveness compared to no treatment or comparator ([1]; Patient three): slightly less aggressive
flushing reaction after drinking alcohol [1, 5]: still experienced a facial flushing reaction and an increased heart rate
Heart rate [1, 6]: 97
Temp (F.) [1, 6]: 98.0 F.
Heart rate [1, 7]: 87
Temp (F.) [1, 7]: 97.1 F.
effectiveness as preventative treatment against symptoms of alcohol-induced flush reaction (summary of the studies) [1]: minimally effective

NC(N)=Nc1nc(CSCCC(N)=NS(N)(=O)=O)cs1 [Famotidine]
solubility ([2]; in ethanol): practically insoluble
solubility ([2]; in glacial acetic acid): freely soluble
solubility ([2]; in methanol): slightly soluble
solubility ([2]; in water): very slightly soluble
redness while imbibing in alcohol ([1]; 10 mg of famotidine): significantly prevents redness
undesired side-effects (drowsiness, sedation) ([1]; Patient five): no undesired side-effects whatsoever
period after which the protective effect (flushing blockade) dissipated ([1]; Patient five, famotidine 10 mg oral, continued drinking beyond six drinks and more than six hours): about five
flushing reaction after drinking alcohol ([1]; Patient five, oral 45 min before drinking: loratadine 20 mg (1 beverage, 1 h) or famotidine 10 mg (5 beverages, about 5 h)): neither a facial flushing reaction nor any nasal congestion
undesired side-effects (drowsiness, sedation) ([1]; Patient four): no undesired side-effects whatsoever
flushing reaction after drinking alcohol ([1]; Patient four, oral 45 min before drinking: loratadine 20 mg (3 beverages, 3-4 h) or famotidine 10 mg (multiple glasses of wine, 4 h)): no flushing reactions of the face or of the torso
effects/effectiveness compared to no treatment or comparator ([1]; Patient one): much more effective than cimetidine
undesired side-effects (drowsiness, sedation) ([1]; Patient one): no undesired side-effects whatsoever
flushing reaction after drinking alcohol [1, 4]: no facial flushing reaction
effects/effectiveness compared to no treatment or comparator ([1]; Patient three): much more effective than cimetidine or no treatment
undesired side-effects (drowsiness, sedation) ([1]; Patient three): no undesired side-effects whatsoever
flushing reaction after drinking alcohol [1, 5]: no flushing reactions of the face
undesired side-effects (drowsiness, sedation) ([1]; Patient two): no undesired side-effects whatsoever
flushing reaction after drinking alcohol ([1]; Patient two, oral 45 min before drinking: loratadine 20 mg (3 beverages, 3-4 h) or famotidine 10 mg (2-3 glasses Vodka, several hours)): no flushing reactions, either of the face or of the torso
Heart rate [1, 8]: 77
Temp (F.) [1, 8]: 97.3 F.
Heart rate [1, 6]: 82
Temp (F.) [1, 6]: 98.2 F.
Heart rate [1, 9]: 84
Temp (F.) [1, 9]: 97.4 F.
Heart rate [1, 7]: 78
Temp (F.) [1, 7]: 97.1 F.
Heart rate [1, 10]: 83
Temp (F.) [1, 10]: 97.3 F.
effectiveness as preventative treatment against symptoms of alcohol-induced flush reaction (summary of the studies) [1]: highly effective
symptoms associated with hangover [3]: did not appear to significantly reduce or eliminate symptoms associated with hangover
